Among the test systems are HT29 colon; RXF 393 renal; M14 melanoma; EKVX NSCLC; MDA-MB-435; MALME-3M melanoma; SF-539 CNS; KM12 colon; SF-268 CNS; HOP-62 NSCLC.
Test in all cases: inhibition of tumour cell growth, NCI panel, 48 h

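Cultured in 96-well plates, cells were exposed to test compound for 48 hours across five concentrations. The concentration for 50% growth inhibition is given as GI50. Definition used: TGI = concentration required for complete inhibition of growth.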

`C=C1c2nc3ccccc3n2C=C(c2cccc(Cl)c2)N1Cc1ccc(OC)cc1`: the GI50 in the test on HT29 colon is 7.15 µM; with RXF 393 renal, 1.16 µM; in the test with M14 melanoma, 0.589 µM; in the test with EKVX NSCLC, 1.07 µM; in the test with MDA-MB-435, 0.158 µM; with MALME-3M melanoma, 0.717 µM. The GI50 in the test on SF-539 CNS was 0.745 µM; in the test on KM12 colon, 1.76 µM; with SF-268 CNS, 1.05 µM; with HOP-62 NSCLC, 2.35 µM. The TGI is 53.2 µM in the test with HT29 colon; 13.1 µM in the test on RXF 393 renal; more than 44.2 µM in the test on M14 melanoma; 12.8 µM in the test with EKVX NSCLC; 72 µM in the test with MALME-3M melanoma; 4.56 µM with SF-539 CNS. Moreover, the TGI in the test on KM12 colon was 16.6 µM; in the test on SF-268 CNS, more than 57.2 µM; with HOP-62 NSCLC it was 39.8 µM.

Regarding `O=C(O)CCC(c1ccccc1)(c1ccccc1)c1ccccc1`, the TGI in the test on HT29 colon, in the test with RXF 393 renal, with M14 melanoma, in the test on EKVX NSCLC, with MDA-MB-435 and in the test on MALME-3M melanoma was more than 100 µM throughout. The TGI in the test with SF-539 CNS was more than 100 µM; in the test on KM12 colon, more than 100 µM; in the test on SF-268 CNS, more than 92.9 µM; with HOP-62 NSCLC it was more than 100 µM. The GI50 in the test with RXF 393 renal is 49.5 µM.

Regarding `Cn1c(CCCC(=O)O)nc2cc(N(CCCl)CCCl)ccc21`, the GI50 in the test on HT29 colon was more than 100 µM; in the test with RXF 393 renal, more than 100 µM; with M14 melanoma, more than 65.5 µM; with EKVX NSCLC, more than 100 µM; with MDA-MB-435, more than 75.5 µM; with MALME-3M melanoma, 49.6 µM. For the same compound, the GI50 in the test with SF-539 CNS was 65.1 µM; in the test on KM12 colon it was more than 100 µM; in the test on SF-268 CNS, 68.5 µM; in the test with HOP-62 NSCLC, more than 76.3 µM. The TGI in the test with HT29 colon, in the test on RXF 393 renal, with M14 melanoma, in the test with EKVX NSCLC, in the test on MDA-MB-435 and in the test on MALME-3M melanoma was more than 100 µM each time. Also, the TGI with SF-539 CNS is more than 94.1 µM; in the test with KM12 colon it was more than 100 µM; in the test on SF-268 CNS, more than 100 µM; in the test on HOP-62 NSCLC, more than 100 µM.

For `O/N=C(\CC(O)(C(F)(F)F)C(F)(F)F)c1cccs1`, the TGI with HT29 colon, in the test with RXF 393 renal, in the test on M14 melanoma, with EKVX NSCLC, in the test with MDA-MB-435 and with MALME-3M melanoma was more than 10 µM each time. Moreover, the TGI with SF-539 CNS, in the test on KM12 colon, with SF-268 CNS and in the test with HOP-62 NSCLC was more than 10 µM each time.

As to `C/C(=N\NC(=O)c1ccncc1)c1sc(-n2nc(-c3ccccc3)cc2-c2ccccc2)nc1C`, the TGI in the test with HT29 colon was more than 100 µM; in the test on RXF 393 renal, more than 31.6 µM; in the test on M14 melanoma it was more than 31.6 µM; in the test with EKVX NSCLC it was more than 100 µM; with MDA-MB-435, more than 31.6 µM; with MALME-3M melanoma it was more than 100 µM. The TGI was more than 31.6 µM in the test on SF-539 CNS, more than 100 µM in the test on KM12 colon, more than 100 µM in the test on SF-268 CNS and more than 31.6 µM in the test on HOP-62 NSCLC.

For the compound `CC1=CC(=O)N(c2cccc3c(N4C(=O)C=C(C)C4=O)cccc23)C1=O`, the GI50 in the test on HT29 colon was 2.73 µM; in the test with RXF 393 renal it was 1.96 µM; with M14 melanoma, 3.9 µM; in the test on EKVX NSCLC, 15.6 µM; in the test on MDA-MB-435, 3.13 µM; with MALME-3M melanoma it was 3.13 µM. Moreover, the GI50 with SF-539 CNS is 3.37 µM; in the test with KM12 colon, 11.3 µM; in the test with SF-268 CNS it was 6.37 µM; in the test with HOP-62 NSCLC it was 28.3 µM. Moreover, the TGI was 8.1 µM in the test with HT29 colon; 4.4 µM with RXF 393 renal; 19.5 µM with M14 melanoma; 33.5 µM in the test with EKVX NSCLC; more than 37.1 µM in the test with MDA-MB-435; 9.33 µM with MALME-3M melanoma. In addition, the TGI with SF-539 CNS was 26.2 µM; with KM12 colon, 34 µM; in the test with SF-268 CNS it was 23.8 µM; in the test with HOP-62 NSCLC, more than 69.3 µM.

As for `CN1CCN(CCCNC(=O)c2c3c(n4ccccc24)C(=O)c2ncccc2C3=O)CC1`, the GI50 in the test with HT29 colon was 0.612 µM; in the test with RXF 393 renal, 1.52 µM; in the test on M14 melanoma it was 1.21 µM; in the test on EKVX NSCLC, 1.61 µM; in the test with MDA-MB-435, 0.295 µM; with MALME-3M melanoma, 0.376 µM. Moreover, the GI50 was 1.99 µM in the test on SF-539 CNS, 1.28 µM in the test on KM12 colon, 1.28 µM in the test on SF-268 CNS and 0.966 µM in the test with HOP-62 NSCLC. The TGI worked out at 2.96 µM in the test with HT29 colon; 10.4 µM in the test on RXF 393 renal; 2.6 µM in the test with M14 melanoma; 5.94 µM with EKVX NSCLC; 0.619 µM with MDA-MB-435; 0.99 µM in the test on MALME-3M melanoma. Further, the TGI in the test on SF-539 CNS is 6.56 µM; in the test on KM12 colon it was 19.5 µM; in the test on SF-268 CNS, 24.4 µM; in the test on HOP-62 NSCLC it was 13.5 µM.

Regarding `CCN(CC)CCNC(=O)c1cccc2c1-c1ccccc1C2=O`, the GI50 in the test with HT29 colon, in the test with RXF 393 renal, in the test with M14 melanoma, in the test with EKVX NSCLC, with MDA-MB-435 and with MALME-3M melanoma was more than 100 µM in each case. Besides, the GI50 in the test on SF-539 CNS is 95.1 µM; in the test on KM12 colon, more than 100 µM; in the test on SF-268 CNS, more than 100 µM; in the test with HOP-62 NSCLC, more than 100 µM. Moreover, the TGI in the test on HT29 colon, in the test on RXF 393 renal, in the test on M14 melanoma, in the test with EKVX NSCLC, in the test on MDA-MB-435 and with MALME-3M melanoma was more than 100 µM in each case. Moreover, the TGI in the test on SF-539 CNS, with KM12 colon, in the test with SF-268 CNS and in the test with HOP-62 NSCLC was more than 100 µM throughout.

For the compound `C=C1C(=O)O[C@H]2[C@H]1CC/C(COC(=O)c1cccnc1N)=C\CC[C@@]1(C)O[C@@H]21`, the GI50 with HT29 colon is 0.721 µM; in the test with RXF 393 renal it was 1.53 µM; with M14 melanoma, 1.12 µM; in the test on EKVX NSCLC it was 3.21 µM; in the test on MDA-MB-435, 2.58 µM; in the test with MALME-3M melanoma, 1.91 µM. The GI50 was 2.56 µM in the test on SF-539 CNS, 3.19 µM in the test on KM12 colon, 3.54 µM in the test with SF-268 CNS and 4.89 µM in the test with HOP-62 NSCLC. Further, the TGI in the test on HT29 colon amounted to 11 µM; in the test with RXF 393 renal, 3.78 µM; in the test on M14 melanoma, 3.59 µM; with EKVX NSCLC, 25.1 µM; in the test on MDA-MB-435, 12 µM; with MALME-3M melanoma, 6.65 µM. Also, the TGI with SF-539 CNS was determined as 8.74 µM; with KM12 colon it was 11.8 µM; in the test with SF-268 CNS, 16.5 µM; in the test with HOP-62 NSCLC, 18.6 µM.

(Values after PubChem BioAssay (NCI).)
